Experimental data reported in paper PMC11369174, “Proteome-scale characterisation of motif-based interactome rewiring by disease mutations” (Molecular Systems Biology, 2024).

Assays:
[1] = molecular target: T1, G3BP2 NTF2 (Homo sapiens, UniProt Q9UN86); assay: GenVar_HD2 ProP-PD phage selection, G3BP2 NTF2; settings: bait G3BP2 NTF2; from NGS counts of overlapping wild-type/mutant library peptide pairs; positive = mutation enhances, negative = disrupts binding
T1 sequence (Q9UN86 1-139): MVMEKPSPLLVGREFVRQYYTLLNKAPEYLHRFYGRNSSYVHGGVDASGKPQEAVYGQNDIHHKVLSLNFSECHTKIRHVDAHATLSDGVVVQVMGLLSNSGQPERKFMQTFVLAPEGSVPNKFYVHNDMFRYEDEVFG
Method: (§1) Phage display screens were performed according to previous reports (Benz et al, [2022]; Ali et al, [2020]) and for four consecutive selection rounds with five to six replicates per bait protein domain against the […] library.
(§2) On the first day, both bait (15 µg in 100 µL PBS) and control protein domains (GST and MBP; 10 µg in 100 µL PBS) were immobilised on a 96-well MaxiSorb plate (Nunc) overnight in the cold room while shaking. Additionally, a 10 mL culture of Omnimax E. coli bacteria supplemented with 10 µg/mL tetracycline was incubated overnight at 37 °C at 200 rpm.
(§3) First, protein solutions were removed from both control and bait protein domain plates and the wells were blocked with 0.5% BSA in PBS (200 µL/well) for 1 h in the cold room while shaking. After that, three Omnimax E. coli cultures were started supplemented with either 30 µg/mL kanamycin, 100 µg/mL carbenicillin and 10 µg/mL tetracycline and incubated at 37 °C and 200 rpm. The two first cultures served as a means to check for helper phage contamination (kanamycin) and phages with library phagemid contamination (carbenicillin) of the culture used for elution of the phages during selections. The tetracycline Omnimax E. coli culture was grown until OD at 600 nm reached 0.6–0.8. […]

[2] = molecular target: T2, CLTC NTD (Homo sapiens, UniProt Q00610); assay: GenVar_HD2 ProP-PD phage selection, CLTC NTD; settings: bait CLTC NTD; from NGS counts of overlapping wild-type/mutant library peptide pairs; positive = mutation enhances, negative = disrupts binding
T2 sequence (Q00610 1-364): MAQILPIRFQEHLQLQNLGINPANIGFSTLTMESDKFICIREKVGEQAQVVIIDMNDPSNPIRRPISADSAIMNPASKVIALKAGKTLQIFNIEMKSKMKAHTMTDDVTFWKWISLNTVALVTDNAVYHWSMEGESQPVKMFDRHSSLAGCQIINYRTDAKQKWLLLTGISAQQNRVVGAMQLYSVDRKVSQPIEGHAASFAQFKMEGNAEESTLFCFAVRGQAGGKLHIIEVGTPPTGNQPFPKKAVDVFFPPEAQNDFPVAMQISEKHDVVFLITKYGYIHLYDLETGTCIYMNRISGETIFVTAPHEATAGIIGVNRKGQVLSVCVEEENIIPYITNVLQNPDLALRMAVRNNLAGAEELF
Method: as §1, §2, §3

[3] = molecular target: T3, NEDD4 WW2 (Homo sapiens, UniProt P46934); assay: GenVar_HD2 ProP-PD phage selection, NEDD4 WW2; settings: bait NEDD4 WW2; from NGS counts of overlapping wild-type/mutant library peptide pairs; positive = mutation enhances, negative = disrupts binding
T3 sequence (P46934 765-803 limits assumed): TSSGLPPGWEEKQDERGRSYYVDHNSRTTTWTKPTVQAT
Method: as §1, §2, §3

[4] = molecular target: T3, NEDD4 WW2; assay: FP displacement assay, NEDD4 WW2; assay type: binding; settings: read-out: KD-values [µM] + SEM
Method: For saturation experiments, a dilution series of the respective protein domains was generated (25 µL) and 10 nM fluorescein isothiocyanate (FITC)-labelled peptide (diluted in 50 mM sodium phosphate buffer pH 7.4, 0.05% Tween) were added in an end volume of 50 µL. A control experiment titrating GST was performed for the binding of the NEDD4 WW2 domain, since the GST-tagged construct was used for affinity measurements.
If the raw values indicated a FITC-contamination of the unlabelled peptide, the data was excluded and a new batch of peptide was ordered for remeasuring the affinity.

[5] = molecular target: T4, MAP1LC3B ATG8 (Homo sapiens, UniProt Q9GZQ8); assay: GenVar_HD2 ProP-PD phage selection, MAP1LC3B ATG8; settings: bait MAP1LC3B ATG8; from NGS counts of overlapping wild-type/mutant library peptide pairs; positive = mutation enhances, negative = disrupts binding
Method: as §1, §2
First, protein solutions were removed from both control and bait protein domain plates and the wells were blocked with 0.5% BSA in PBS (200 µL/well) for 1 h in the cold room while shaking. After that, three Omnimax E. coli cultures were started supplemented with either 30 µg/mL kanamycin, 100 µg/mL carbenicillin and 10 µg/mL tetracycline and incubated at 37 °C and 200 rpm. The two first cultures served as a means to check for helper phage contamination (kanamycin) and phages with library phagemid contamination (carbenicillin) of the culture used for elution of the phages during selections. The tetracycline Omnimax E. coli culture was grown until OD at 600 nm reached 0.6–0.8.
Naïve phage libraries were precipitated (10 µL/well of bait protein domain) by diluting the library tenfold with PBS, adding one-fourth of 20% […] and 400 mM NaCl and incubating the mixture for 15 min on ice. Subsequently, phages were spun down for 15 min at 13,000 × g and resuspended in 0.5% BSA and 0.05% Tween-20 in PBS (100 µL/well). Control domain plates were washed four times with 200 µL 0.05% Tween-20 in PBS, 100 µL of the naïve phage library (10^11 phages/mL) were added to every well and the plates incubated for 1 h in the cold room while shaking. Next, protein bait domain plates were washed four times with 0.05% Tween-20 in PBS and the phage solution from the control protein plate was transferred to the respective wells on the protein bait domain plate. […]

[6] = molecular target: T4, MAP1LC3B ATG8; assay: FP displacement assay, MAP1LC3B ATG8; assay type: binding; settings: for Kd: read-out: KD-values [µM] + SEM
Method: (§4) FP experiments were performed, as previously described (Kliche et al, [2021], [2023]), on an iD5 plate reader (Molecular devices) using black half-area non-binding 96-well plates (Corning). In order to calculate the FP signal in millipolarisation (mP), the FITC-labelled peptides were excited at 485 nm and the emitted light was measured at 535 nm in two different angles. For saturation experiments, a dilution series of the respective protein domains was generated (25 µL) and 10 nM fluorescein isothiocyanate (FITC)-labelled peptide (diluted in 50 mM sodium phosphate buffer pH 7.4, 0.05% Tween) were added in an end volume of 50 µL. A control experiment titrating GST was performed for the binding of the NEDD4 WW2 domain, since the GST-tagged construct was used for affinity measurements. For fitting the data, the buffer-corrected reduced values were plotted in GraphPad PRISM against the respective protein concentration and the KD-values were obtained by fitting against the quadratic equation (Gianni et al, [2005]).
(§5) The buffer-corrected reduced values were subsequently plotted against the logarithmic unlabelled peptide concentration to derive the IC50 values by using the sigmoidal dose-response (x is logarithmic) fit in GraphPad PRISM and calculate the KD values as described previously (Nikolovska-Coleska et al, [2004]).

[7] = molecular target: T5, GABARAPL1 ATG8 (Homo sapiens, UniProt Q9H0R8); assay: GenVar_HD2 ProP-PD phage selection, GABARAPL1 ATG8; settings: bait GABARAPL1 ATG8; from NGS counts of overlapping wild-type/mutant library peptide pairs; positive = mutation enhances, negative = disrupts binding
T5 sequence (Q9H0R8 2-115): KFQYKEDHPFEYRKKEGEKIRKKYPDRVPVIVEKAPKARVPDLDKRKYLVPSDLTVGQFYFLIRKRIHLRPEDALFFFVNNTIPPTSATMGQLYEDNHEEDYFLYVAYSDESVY
Method: as §1, §2, §3

[8] = molecular target: T5, GABARAPL1 ATG8; assay: FP displacement assay, GABARAPL1 ATG8; assay type: binding; settings: read-out: KD-values [µM] + SEM
Method: (§6) FP experiments were performed, as previously described (Kliche et al, [2021], [2023]), on an iD5 plate reader (Molecular devices) using black half-area non-binding 96-well plates (Corning). In order to calculate the FP signal in millipolarisation (mP), the FITC-labelled peptides were excited at 485 nm and the emitted light was measured at 535 nm in two different angles. For saturation experiments, a dilution series of the respective protein domains was generated (25 µL) and 10 nM fluorescein isothiocyanate (FITC)-labelled peptide (diluted in 50 mM sodium phosphate buffer pH 7.4, 0.05% Tween) were added in an end volume of 50 µL. […] For fitting the data, the buffer-corrected reduced values were plotted in GraphPad PRISM against the respective protein concentration and the KD-values were obtained by fitting against the quadratic equation (Gianni et al, [2005]).
as §5

[9] = molecular target: T6, CASK kinase domain (Homo sapiens, UniProt O14936); assay: FP displacement assay, CASK kinase domain; settings: FP displacement of FITC-PER2 (10 nM) complexed with domain (1-2x KD), 50 mM sodium phosphate pH 7.4, 100 mM NaCl, KD from IC50, technical triplets, n.b. = not binding within concentration range used
T6 sequence (O14936 1-340): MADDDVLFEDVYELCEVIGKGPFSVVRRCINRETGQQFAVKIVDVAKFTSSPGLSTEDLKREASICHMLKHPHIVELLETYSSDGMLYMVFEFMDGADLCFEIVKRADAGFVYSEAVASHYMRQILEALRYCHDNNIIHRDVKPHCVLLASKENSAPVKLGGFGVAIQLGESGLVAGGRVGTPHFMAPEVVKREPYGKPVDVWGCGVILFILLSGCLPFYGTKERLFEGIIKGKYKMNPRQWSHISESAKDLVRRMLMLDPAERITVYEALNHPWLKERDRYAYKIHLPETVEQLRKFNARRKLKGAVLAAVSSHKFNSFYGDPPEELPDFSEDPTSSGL
Method: as §4, §5

[10] = molecular target: T2, CLTC NTD; assay: FP displacement assay, CLTC NTD; assay type: binding; settings: read-out: KD-values [µM] + SEM
Method: as §6, §5

[11] = molecular target: T6, CASK kinase domain; assay: GenVar_HD2 ProP-PD phage selection, CASK kinase domain; settings: bait CASK kinase domain; from NGS counts of overlapping wild-type/mutant library peptide pairs; positive = mutation enhances, negative = disrupts binding
Method: as §1, §2, §3

[12] = molecular target: USP7 MATH/TRAF (Homo sapiens, UniProt Q93009); assay: FP displacement assay, USP7 MATH/TRAF; assay type: binding; settings: read-out: KD-values [µM] + SEM
USP7 MATH/TRAF, sequence (Q93009 53-206): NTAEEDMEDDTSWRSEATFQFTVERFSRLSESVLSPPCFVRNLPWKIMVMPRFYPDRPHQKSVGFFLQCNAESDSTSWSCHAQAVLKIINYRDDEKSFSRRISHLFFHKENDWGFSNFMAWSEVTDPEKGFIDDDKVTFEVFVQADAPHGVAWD
Method: as §6, §5

[13] = molecular target: KPNA4 ARM minor (Homo sapiens, UniProt O00629); assay: FP displacement assay, KPNA4 ARM minor pocket; assay type: binding
KPNA4 ARM minor, sequence (O00629 68-487): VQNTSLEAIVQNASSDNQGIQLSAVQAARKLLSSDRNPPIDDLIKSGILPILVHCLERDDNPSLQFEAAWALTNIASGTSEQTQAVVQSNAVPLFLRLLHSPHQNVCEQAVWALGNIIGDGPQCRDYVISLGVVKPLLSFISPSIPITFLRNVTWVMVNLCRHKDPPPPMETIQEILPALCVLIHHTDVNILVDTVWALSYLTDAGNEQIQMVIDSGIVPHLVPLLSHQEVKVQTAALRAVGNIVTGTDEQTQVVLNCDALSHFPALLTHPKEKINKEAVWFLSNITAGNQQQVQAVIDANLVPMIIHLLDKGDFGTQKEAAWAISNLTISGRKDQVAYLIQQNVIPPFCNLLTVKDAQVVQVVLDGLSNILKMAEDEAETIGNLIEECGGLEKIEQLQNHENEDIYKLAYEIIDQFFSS
Method: as §4, §5

[14] = tested on: KPNA4 ARM; assay: GenVar_HD2 ProP-PD phage selection, KPNA4 ARM; assay type: binding, human; settings: bait KPNA4 ARM; from NGS counts of overlapping wild-type/mutant library peptide pairs; positive = mutation enhances, negative = disrupts binding
[15] = molecular target: KPNA4 ARM major (Homo sapiens, UniProt O00629); assay: FP displacement assay, KPNA4 ARM major pocket; assay type: binding
KPNA4 ARM major, sequence (O00629 68-487): as above
Method: as §4, §5

[16] = molecular target: T7, G3BP1 NTF2 (Homo sapiens, UniProt Q13283); assay: GenVar_HD2 ProP-PD phage selection, G3BP1 NTF2; settings: bait G3BP1 NTF2; from NGS counts of overlapping wild-type/mutant library peptide pairs; positive = mutation enhances, negative = disrupts binding
T7 sequence (Q13283 1-139): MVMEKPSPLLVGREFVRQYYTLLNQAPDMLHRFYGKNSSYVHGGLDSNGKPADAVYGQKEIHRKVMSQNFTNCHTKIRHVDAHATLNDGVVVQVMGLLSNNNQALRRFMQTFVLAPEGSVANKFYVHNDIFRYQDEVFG
Method: as §1, §2, §3

[17] = molecular target: T1, G3BP2 NTF2; assay: FP displacement assay, G3BP2 NTF2; settings: FP displacement of FITC-N_SARS-CoV-2 (10 nM) complexed with domain (1-2x KD), 50 mM sodium phosphate pH 7.4, KD from IC50, technical triplets, n.b. = not binding within concentration range used
[18] = molecular target: T7, G3BP1 NTF2; settings: FP displacement of FITC-N_SARS-CoV-2 (10 nM) complexed with domain (1-2x KD), 50 mM sodium phosphate pH 7.4, KD from IC50, technical triplets, n.b. = not binding within concentration range used

## Ac-DLLTFGQAQMNFPY-NH2 [BCL11A_44-56 C48F]
[1]
  Mutation enrichment score: 10
[2]
  Mutation enrichment score: 12

## Ac-PIPGTPPRNYDSLRLQ-NH2 [SCNN1B_611-626 P618R]
[3]
  Mutation enrichment score: −16
[4]
  Kd: 603 ± 73 µM

## Ac-DKDEWQFLDQNEDAFE-NH2 [BUB1_486-501 S492F]
[5]
  Mutation enrichment score: 12
[6]; from FP displacement KD values, MAP1LC3B ATG8
  increase in affinity, mutant vs wild-type peptide: four-fold increase in affinity
[6]
  Kd: 1.6 ± 0.1 µM
[7]
  Mutation enrichment score: 16
[8]
  Kd: < 0.3 µM

## H3COC-YSGDTSP(R/W)HLSNVSST-NH2 [MAPT_717-731 wild-type, wild-type MAPT peptide, residues 717-731]
[9]
  KD-values [µM] + SEM: no binding and n.b.

## Ac-SGNLIDLYGNQGLPY-NH2 [MITF_258-271 wild-type]
[10]
  Kd: 191 ± 27 µM

## CSCC[C@H](NC(C)=O)C(=O)N[C@@H](CO)C(=O)N[C@@H](CC(=O)O)C(=O)N[C@@H](CC(C)C)C(=O)N[C@@H](Cc1c[nH]c2ccccc12)C(=O)N[C@H](C(=O)N1CCC[C@H]1C(=O)N[C@@H](CC(N)=O)C(=O)N[C@@H](CO)C(=O)N[C@@H](C)C(=O)N[C@@H](CO)C(=O)NCC(=O)N[C@@H](CCC(N)=O)C(=O)N[C@@H](CC(=O)O)C(=O)N1CCC[C@H]1C(=O)NCC(N)=O)C(C)C [FANCA_1-16 S4L]
[11]
  Mutation enrichment score: 6

## Ac-YISSSSTSTMPNSSQSS-NH2 [CHK2_38-53 wild-type]
[12]
  Kd: 3.1 ± 0.2 µM

## Ac-SGNLIDLCGNQGLPY-NH2 [MITF_258-271 Y265C]
[2]
  Mutation enrichment score: −9.8
[10]
  Kd: 206 ± 13 µM

## Ac-PELWVAHRTAQHLSAT-NH2 [ZNF526_152-167 L160T]
[13]; read-out: KD-values [µM] + SEM
  Kd: 395 ± 10 µM
[14]
  Mutation enrichment score: −6.4
[15]; major pocket, FP displacement of FITC-MYC (10 nM) complexed with domain (1-2x KD), 50 mM sodium phosphate pH 7.4, KD from IC50, ± SEM, n.b. = not binding within concentration range used
  KD-values [µM] + SEM: n.b.

## Ac-YSGDTSPWHLSNVSST-NH2 [MAPT_717-731 R723W]
[11]
  Mutation enrichment score: 12

## CC(=O)N[C@@H](CCC(=O)O)C(=O)N[C@@H](Cc1ccccc1)C(=O)N1CCC[C@H]1C(=O)N[C@H](C(=O)N1CCC[C@H]1C(=O)N[C@@H](Cc1ccccc1)C(=O)N[C@@H](Cc1ccccc1)C(=O)NCC(=O)N[C@@H](CO)C(=O)N[C@@H](CC(N)=O)C(=O)N[C@@H](CC(=O)O)C(=O)N[C@@H](Cc1ccc(O)cc1)C(=O)N[C@@H](CC(C)C)C(=O)N[C@@H](Cc1c[nH]c2ccccc12)C(=O)N[C@H](C(=O)N[C@@H](Cc1c[nH]cn1)C(N)=O)[C@@H](C)O)C(C)C [NSD1_1793-1808 L1797P]
[16]
  Mutation enrichment score: −7.4

## Ac-PIPGTRPPNYDSLRLQ-NH2 [SCNN1B_611-626 P616R]
[3]
  Mutation enrichment score: −12
[4]
  Kd: 80 ± 7 µM

## H3COC-MSD(S/L)WVPNSASGQDPG-NH2 [FANCA_1-16 wild-type, wild-type FANCA peptide, residues 1-16]
[9]
  KD-values [µM] + SEM: n.b.

## Ac-DLLTCGQAQMNFPY-NH2 [BCL11A_44-56 wild-type]
[17]
  KD-values [µM] + SEM: n.b.

## Ac-YLLDGPPNPERAKLSS-NH2 [CREBBP_5-19 K13E]
[13]; minor pocket, FP displacement of FITC-NCOR2 (10 nM) complexed with domain (1-2x KD), 50 mM sodium phosphate pH 7.4, KD from IC50, technical triplets, ± SEM, n.b. = not binding within concentration range used
  KD-values [µM] + SEM: n.b.
[14]
  Mutation enrichment score: −6
[15]; read-out: KD-values [µM] + SEM
  Kd: 860 ± 20 µM

## H3COC-QQSYLD(S/F)GIHSGATTT-NH2 [CTNNB1_27-42 wild-type]
[18]
  KD-values [µM] + SEM: no binding and n.b.

## Ac-DKDEWQSLDQNEDAFE-NH2 [BUB1_486-501 wild-type]
[6]
  Kd: 7 ± 1 µM
[8]
  Kd: 5.5 ± 0.7 µM

## Ac-QQSYLDFGIHSGATTT-NH2 [CTNNB1_27-42 S33F]
[16]
  Mutation enrichment score: 9
